Experimental data as given in patent publication EP3414229B1, “QUINOLINONE LYSYL OXIDASE-LIKE 2 INHIBITORS AND USES THEREOF” (Pharmakea, Inc., priority 2016, dated 2017).

system: C57B1/6 male mice; experiment: Mouse Oropharyngeal Bleomycin Model of Lung Fibrosis; assay type: in vivo; conditions: dosed prophylactically at 60 mg/kg p.o.
Experimental: Example B-3: Mouse Oropharyngeal Bleomycin Model of Lung Fibrosis
Lung fibrosis is induced in C57B1/6 male mice by administering bleomycin (0.1-4 U/kg) via oropharyngeal instillation. Mice are either pretreated with vehicle or test compound (1 day to 1 hour) orally, intraperitoneally, intravenously or subcutaneously before bleomycin installation (prophylactic dosing) or 7-14 days post bleomycin instillation (therapeutic dosing). The route and frequency of dosing are based on previously determined pharmacokinetic properties for the LOXL2 inhibitor in mouse. After bleomycin instillation animals are monitored daily for weight loss and clinical signs for 14-28 days prior to sacrifice. […] For histological examination, lung slices are stained with Masson's trichrome or Picro-Sirius red to measure cross-linked collagen as an indicator of fibrosis and an Ashcroft score of lung fibrotic and inflammatory damage determined. In addition, immunohistochemistry of fibrotic proteins such as a-smooth muscle actin can be recorded. […] After the acid hydrolysis, 25-100 µl of the supernatant is dried down, resuspended in 25 µl water and the hydroxyproline content determined by the addition of 0.5 ml Chloramine T solution (140 mg Chloramine T in 6.5 ml ddH20 + 1 ml n-propanol + 2.5 ml 1M sodium acetate) and incubation at room temperature for 20 min. […]

Row | SMILES | efficacy in bleomycin model of lung fibrosis
1 | NCc1cc(=O)c2cc(Br)ccc2[nH]1 [Compound 1-3, 2-(Aminomethyl)-6-bromoquinolin-4(1H)-one] | efficacious

molecular target: T1, human LOXL2 (Homo sapiens, UniProt Q9Y4K0); experiment: Human LOXL2 Amine Oxidase Activity Assay (Amplex Red fluorescence); assay type: biochemical; conditions: concentrated conditioned media from CHO cells stably expressing human LOXL2; 2h at 37 °C with test compound; DAP substrate
T1 construct: expressed in transfected cells; 10-20X concentrated conditioned media used as the enzyme source
T1 sequence (Q9Y4K0 26-774): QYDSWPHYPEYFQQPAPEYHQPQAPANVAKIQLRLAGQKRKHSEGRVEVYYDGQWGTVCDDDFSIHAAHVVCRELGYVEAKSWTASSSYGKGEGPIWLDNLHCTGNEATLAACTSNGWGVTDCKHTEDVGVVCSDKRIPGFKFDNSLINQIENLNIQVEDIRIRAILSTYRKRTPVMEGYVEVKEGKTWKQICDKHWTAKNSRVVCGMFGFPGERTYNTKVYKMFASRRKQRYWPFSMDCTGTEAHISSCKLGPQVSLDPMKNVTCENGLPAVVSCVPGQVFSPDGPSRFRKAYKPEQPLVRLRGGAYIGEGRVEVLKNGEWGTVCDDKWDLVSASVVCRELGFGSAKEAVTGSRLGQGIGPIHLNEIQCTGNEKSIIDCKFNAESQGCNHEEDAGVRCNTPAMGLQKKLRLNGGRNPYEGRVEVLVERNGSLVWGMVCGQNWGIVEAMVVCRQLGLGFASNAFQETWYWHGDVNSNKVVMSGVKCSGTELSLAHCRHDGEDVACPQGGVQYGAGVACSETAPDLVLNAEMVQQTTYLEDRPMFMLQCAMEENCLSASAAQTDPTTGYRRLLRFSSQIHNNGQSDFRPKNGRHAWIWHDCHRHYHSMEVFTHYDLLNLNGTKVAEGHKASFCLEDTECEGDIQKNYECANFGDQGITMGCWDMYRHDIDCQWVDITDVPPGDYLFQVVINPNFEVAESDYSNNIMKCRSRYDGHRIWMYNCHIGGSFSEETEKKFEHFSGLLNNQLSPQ
Experimental: Example B-1: Human LOXL2 Amine Oxidase Activity Assay
LOXL2 amine oxidase activity is evaluated by measuring Amplex Red fluorescence using 10-20X concentrated conditioned media from CHO cells stably expressing human LOXL2. To assay for amine oxidase activity, 10 µL of the concentrated conditioned media is incubated with 2 µL of test compound in DMSO and 73 µL Assay Buffer (50 mM Borate Buffer, pH8) for 2h at 37 °C. After the 2h incubation, 5 ul of 10 mM 1,5-Diaminopentane (DAP) diluted in Assay Buffer and 10 µl of Amplex Red Mix (8.5 µl Assay Buffer + 0.5 µl of 10 mM Amplex Red + 1 µl of 500 U/ml Horseradish Peroxidase) are added and the plate mixed and immediately placed on the FlexStaion for fluorescence measurements. Fluorescence is read in kinetic mode every 2 min for 1 hour at excitation = 544 and emission = 590. The amine oxidase activity is calculated from the slope of the linear portion of the curve.

Row | IC50 [nM] | SMILES
2 | < 300 | NCc1cc(=O)c2cc(-c3ccc(C(F)(F)F)nc3)ccc2[nH]1 [Compound 1-74, 2-(Aminomethyl)-6-(6-(trifluoromethyl)pyridin-3-yl)quinolin-4(1H)-one]
3 | < 300 | C#Cc1ccc2[nH]c(CN)cc(=O)c2c1 [Compound 1-4, 2-(Aminomethyl)-6-ethynylquinolin-4(1H)-one]
4 | < 300 | NCc1cc(=O)c2cc(-c3cccc4cccnc34)ccc2[nH]1 [Compound 1-65, 2-(Aminomethyl)-[6,8'-biquinolin]-4(1H)-one]
5 | < 300 | NCc1cc(=O)c2cc(-c3cncc(OCc4ccccc4)c3)ccc2[nH]1 [Compound 1-66, 2-(Aminomethyl)-6-(5-(benzyloxy)pyridin-3-yl)quinolin-4(1H)-one]
6 | < 300 | NCc1cc(=O)c2ccccc2[nH]1 [Compound 1-1, 2-(Aminomethyl)quinolin-4(1H)-one]
7 | < 300 | Cn1cc(-c2ccc3[nH]c(CN)cc(=O)c3c2)cn1 [Compound 1-47, 2-(Aminomethyl)-6-(1-methyl-1H-pyrazol-4-yl)quinolin-4(1H)-one]
8 | < 300 | Cc1ccc(=O)n(-c2ccc3[nH]c(CN)cc(=O)c3c2)c1 [Compound 1-46, 2-(Aminomethyl)-6-(5-methyl-2-oxopyridin-1(2H)-yl)quinolin-4(1H)-one]
9 | > 1000 | Cn1c(CN)cc(=O)c2ccccc21 [Compound 1-2, 2-(Aminomethyl)-1-methylquinolin-4(1H)-one]
10 | < 300 | COc1ccc(-c2ccc3[nH]c(CN)cc(=O)c3c2)cc1F [Compound 1-72, 2-(Aminomethyl)-6-(3-fluoro-4-methoxyphenyl)quinolin-4(1H)-one]
11 | < 300 | NCc1cc(=O)c2cc(-c3ccccc3)ccc2[nH]1 [Compound 1-5, 2-(Aminomethyl)-6-phenylquinolin-4(1H)-one]
12 | < 300 | NCc1cc(=O)c2cc(-c3cn(-c4ccccc4)nn3)ccc2[nH]1 [Compound 1-6, 2-(Aminomethyl)-6-(1-phenyl-1H-1,2,3-triazol-4-yl)quinolin-4(1H)-one]
13 | < 300 | NCc1cc(=O)c2cc(-n3cccn3)ccc2[nH]1 [Compound 1-8, 2-(Aminomethyl)-6-(1H-pyrazol-1-yl)quinolin-4(1H)-one]
14 | < 300 | NCc1cc(=O)c2cc(-c3ccc(F)cc3)ccc2[nH]1 [Compound 1-11, 2-(Aminomethyl)-6-(4-fluorophenyl)quinolin-4(1H)-one]
15 | < 300 | NCc1cc(=O)c2cc(Oc3ccccc3)ccc2[nH]1 [Compound 1-21, 2-(Aminomethyl)-6-phenoxyquinolin-4(1H)-one]
16 | < 300 | COc1ccc2[nH]c(CN)cc(=O)c2c1 [Compound 1-9, 2-(Aminomethyl)-6-methoxyquinolin-4(1H)-one]
17 | < 300 | NCc1cc(=O)c2cc(Br)ccc2[nH]1 [Compound 1-3, 2-(Aminomethyl)-6-bromoquinolin-4(1H)-one]
18 | < 300 | NCc1cc(=O)c2cc(-c3cnc(C(F)(F)F)nc3)ccc2[nH]1 [Compound 1-77, 2-(Aminomethyl)-6-(2-(trifluoromethyl)pyrimidin-5-yl)quinolin-4(1H)-one]
19 | < 300 | NCc1cc(=O)c2cc(-c3cncnc3)ccc2[nH]1 [Compound 1-40, 2-(Aminomethyl)-6-(pyrimidin-5-yl)quinolin-4(1H)-one]
20 | < 300 | NCc1cc(=O)c2cc(C#Cc3ccccc3)ccc2[nH]1 [Compound 1-7, 2-(Aminomethyl)-6-(phenylethynyl)quinolin-4(1H)-one]
21 | < 300 | COCCOc1ccc2[nH]c(CN)cc(=O)c2c1 [Compound 1-78, 2-(Aminomethyl)-6-(2-methoxyethoxy)quinolin-4(1H)-one]
22 | < 300 | NCc1cc(=O)c2cc(-c3ccc(F)cc3Cl)ccc2[nH]1 [Compound 1-70, 2-(Aminomethyl)-6-(2-chloro-4-fluorophenyl)quinolin-4(1H)-one]
